Measurements reported in ChEMBL document CHEMBL1201862, “PubChem BioAssay data set” (2004).
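Following 48 hours of exposure in 96-well plates, responses at five concentrations were used to interpolate endpoints linearly. Here, GI50 denotes the concentration required for 50% inhibition of growth.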 The source made the active and inactive calls. No stated cut-off is given here; in the data, active = GI50 up to about 1.1 µM and inactive = higher.

Experiments:
Test in all cases: inhibition of tumour cell growth, NCI panel, 48 h
DMS-273 = tested on: DMS-273
SNB-75 = tested on: SNB-75
NCI-H226 = tested on: NCI-H226
Malme-3M = tested on: Malme-3M
HT-29 = tested on: HT-29
NCI-H522 = tested on: NCI-H522
UO-31 = tested on: UO-31
SNB-19 = tested on: SNB-19
U-251 = tested on: U-251
SK-MEL-5 = tested on: SK-MEL-5
SF-295 = tested on: SF-295
SR = tested on: SR
M19-MEL = tested on: M19-MEL
EKVX = tested on: EKVX
SN12C = tested on: SN12C
A549 = tested on: A549
SK-OV-3 = tested on: SK-OV-3
HL-60 = tested on: HL-60
KM12 = tested on: KM12
HOP-92 = tested on: HOP-92
LOX IMVI = tested on: LOX IMVI
DLD-1 = tested on: DLD-1
OVCAR-4 = tested on: OVCAR-4
COLO 205 = tested on: COLO 205
SF-268 = tested on: SF-268
NCI-H23 = tested on: NCI-H23
SW-620 = tested on: SW-620
NCI-H460 = tested on: NCI-H460
UACC-62 = tested on: UACC-62
786-0 = tested on: 786-0
SF-539 = tested on: SF-539
CAKI-1 = tested on: CAKI-1
UACC-257 = tested on: UACC-257
IGROV-1 = tested on: IGROV-1
CCRF-CEM = tested on: CCRF-CEM
SK-MEL-2 = tested on: SK-MEL-2
KM-20L2 = tested on: KM-20L2
RPMI-8226 = tested on: RPMI-8226
HCT-116 = tested on: HCT-116
HCC 2998 = tested on: HCC 2998
K562 = tested on: K562
MOLT-4 = tested on: MOLT-4
SNB-78 = tested on: SNB-78
TK-10 = tested on: TK-10
LXFL 529 = tested on: LXFL 529
HCT-15 = tested on: HCT-15
SK-MEL-28 = tested on: SK-MEL-28
XF498 = tested on: XF498
RXF 393 = tested on: RXF 393
OVCAR-5 = tested on: OVCAR-5
DMS-114 = tested on: DMS-114
A498 = tested on: A498
HOP-62 = tested on: HOP-62
OVCAR-3 = tested on: OVCAR-3
ACHN = tested on: ACHN
OVCAR-8 = tested on: OVCAR-8
M14 = tested on: M14
HOP-18 = tested on: HOP-18

Structure (SMILES): O=C(O)CS [THIOGLYCOLIC ACID]
- GI50 (DMS-273): > 100 µM (inactive)
- GI50 (SNB-75): > 100 µM (inactive)
- GI50 (NCI-H226): > 100 µM (inactive)
- GI50 (Malme-3M): > 100 µM (inactive)
- GI50 (HT-29): > 100 µM (inactive)
- GI50 (NCI-H522): > 100 µM (inactive)
- GI50 (UO-31): > 100 µM (inactive)
- GI50 (SNB-19): > 100 µM (inactive)
- GI50 (U-251): > 100 µM (inactive)
- GI50 (SK-MEL-5): > 100 µM (inactive)
- GI50 (SF-295): > 100 µM (inactive)
- GI50 (SR): > 100 µM (inactive)
- GI50 (M19-MEL): > 100 µM (inactive)
- GI50 (EKVX): > 100 µM (inactive)
- GI50 (SN12C): > 100 µM (inactive)
- GI50 (A549): > 100 µM (inactive)
- GI50 (SK-OV-3): > 100 µM (inactive)
- GI50 (HL-60): > 100 µM (inactive)
- GI50 (KM12): > 100 µM (inactive)
- GI50 (HOP-92): > 100 µM (inactive)
- GI50 (LOX IMVI): > 100 µM (inactive)
- GI50 (DLD-1): > 100 µM (inactive)
- GI50 (OVCAR-4): > 100 µM (inactive)
- GI50 (COLO 205): > 100 µM (inactive)
- GI50 (SF-268): > 100 µM (inactive)
- GI50 (NCI-H23): > 100 µM (inactive)
- GI50 (SW-620): > 100 µM (inactive)
- GI50 (NCI-H460): > 100 µM (inactive)
- GI50 (UACC-62): > 100 µM (inactive)
- GI50 (786-0): > 100 µM (inactive)
- GI50 (SF-539): > 100 µM (inactive)
- GI50 (CAKI-1): > 100 µM (inactive)
- GI50 (UACC-257): > 100 µM (inactive)
- GI50 (IGROV-1): > 100 µM (inactive)
- GI50 (CCRF-CEM): > 100 µM (inactive)
- GI50 (SK-MEL-2): > 100 µM (inactive)
- GI50 (KM-20L2): > 100 µM (inactive)
- GI50 (RPMI-8226): > 100 µM (inactive)
- GI50 (HCT-116): > 100 µM (inactive)
- GI50 (HCC 2998): > 100 µM (inactive)
- GI50 (K562): > 100 µM (inactive)
- GI50 (MOLT-4): > 100 µM (inactive)
- GI50 (SNB-78): > 100 µM (inactive)
- GI50 (TK-10): > 100 µM (inactive)
- GI50 (LXFL 529): > 100 µM (inactive)
- GI50 (HCT-15): > 100 µM
- GI50 (SK-MEL-28): > 100 µM (inactive)
- GI50 (XF498): > 100 µM (inactive)
- GI50 (RXF 393): > 100 µM (inactive)
- GI50 (OVCAR-5): > 100 µM (inactive)
- GI50 (DMS-114): > 100 µM (inactive)

Structure (SMILES): Cn1c2c(cc(-c3ccccc3)c1=O)COc1ccccc1-2
- GI50 (DMS-273): 19.5 µM (inactive)
- GI50 (SNB-75): 23.4 µM (inactive)
- GI50 (NCI-H226): 32.5 µM (inactive)
- GI50 (Malme-3M): 20.3 µM (inactive)
- GI50 (HT-29): 19.9 µM (inactive)
- GI50 (NCI-H522): 17.9 µM (inactive)
- GI50 (A498): 40.6 µM (inactive)
- GI50 (UO-31): 27.5 µM (inactive)
- GI50 (SNB-19): 40.9 µM (inactive)
- GI50 (HOP-62): 42.3 µM (inactive)
- GI50 (U-251): 41.6 µM (inactive)
- GI50 (SK-MEL-5): 17.5 µM (inactive)
- GI50 (SF-295): 25.8 µM (inactive)
- GI50 (SR): 39.1 µM (inactive)
- GI50 (M19-MEL): 25.6 µM (inactive)
- GI50 (OVCAR-3): 26.4 µM (inactive)
- GI50 (EKVX): 9.04 µM (inactive)
- GI50 (SN12C): 35 µM (inactive)
- GI50 (A549): 33.3 µM (inactive)
- GI50 (SK-OV-3): 37.8 µM (inactive)
- GI50 (HL-60): 29.8 µM (inactive)
- GI50 (KM12): 13 µM (inactive)
- GI50 (HOP-92): 28.8 µM (inactive)
- GI50 (LOX IMVI): 15.2 µM (inactive)
- GI50 (DLD-1): 36.6 µM (inactive)
- GI50 (OVCAR-4): 37.8 µM (inactive)
- GI50 (COLO 205): 29 µM (inactive)
- GI50 (SF-268): 28.6 µM (inactive)
- GI50 (NCI-H23): 26.9 µM (inactive)
- GI50 (ACHN): 24 µM (inactive)
- GI50 (SW-620): 45.9 µM (inactive)
- GI50 (NCI-H460): 20.3 µM (inactive)
- GI50 (UACC-62): 14.7 µM (inactive)
- GI50 (786-0): 39.3 µM (inactive)
- GI50 (SF-539): 49.1 µM (inactive)
- GI50 (CAKI-1): 37.5 µM (inactive)
- GI50 (UACC-257): 36.9 µM (inactive)
- GI50 (IGROV-1): 35.5 µM (inactive)
- GI50 (CCRF-CEM): 30.5 µM (inactive)
- GI50 (SK-MEL-2): 14 µM (inactive)
- GI50 (KM-20L2): 25.1 µM (inactive)
- GI50 (RPMI-8226): 20.2 µM (inactive)
- GI50 (HCT-116): 16.9 µM (inactive)
- GI50 (HCC 2998): 24.8 µM (inactive)
- GI50 (OVCAR-8): 34 µM (inactive)
- GI50 (K562): 23.9 µM (inactive)
- GI50 (M14): 31.6 µM (inactive)
- GI50 (MOLT-4): 23.1 µM (inactive)
- GI50 (HOP-18): > 100 µM (inactive)
- GI50 (SNB-78): 33.7 µM (inactive)
- GI50 (LXFL 529): 31.4 µM (inactive)
- GI50 (HCT-15): 32.1 µM
- GI50 (SK-MEL-28): 24.1 µM (inactive)
- GI50 (XF498): 8.04 µM (inactive)
- GI50 (RXF 393): 36.1 µM (inactive)
- GI50 (OVCAR-5): 14.5 µM (inactive)
- GI50 (DMS-114): 15.4 µM (inactive)
